From patent publication US20140322315A1, “CYSTEAMINE AND/OR CYSTAMINE FOR TREATING ISCHEMIC INJURY” (The Regents of the University of California, priority 2011, published 2014)
“And” between values parts separate entries of the source, which are not always exact repeats. Equal values may be shown once. “Also recorded” adds a separate entry of the source.

Assays:
[1] = molecular target: T1, adiponectin multimers (Homo sapiens, UniProt Q15848); test: Gastric Banding (GB) serum incubated with cysteamine, adiponectin multimers by western blot; assay type: biochemical; settings: 37° C. + 45 μM cysteamine, 1 hr
T1 construct: from tissue; host or cells: human serum (pretreatment NAFLD subjects; adults without NAFLD)
T1 sequence (Q15848 19-244): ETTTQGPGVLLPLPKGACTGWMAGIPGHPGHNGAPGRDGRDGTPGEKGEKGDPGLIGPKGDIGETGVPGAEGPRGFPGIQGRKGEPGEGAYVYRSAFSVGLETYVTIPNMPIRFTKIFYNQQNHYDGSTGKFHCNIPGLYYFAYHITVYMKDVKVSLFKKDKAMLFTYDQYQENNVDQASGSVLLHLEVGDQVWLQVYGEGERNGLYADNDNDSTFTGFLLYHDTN
Method: (§1) In another experiment, 25 μl total sample volume (5 μl diluted serum+15 μl water+5 μl 5×LB) was incubated with or without cysteamine at 37° C.×1 hr. A control was prepared without cysteamine and incubated at room temperature for 1 hour on the bench. The preparations were then run on 2×15-well 1.5 mm 3-8% Tris-acetate gels. Primary antibody—mouse anti-adiponectin 1:500, overnight at 4° C. and secondary antibody—goat anti-mouse IR800 1:20,000.
To determine threshold dose of cysteamine on reduction of serum adiponectin multimers, serum was collected and incubated with various concentrations of cysteamine. Six microliters of diluted GB serum was incubated with 24 μl water and various concentrations of cysteamine. Samples, were incubate in a tissue culture incubator for 1 hr at 37° C. with a control tube having no cysteamine addition. To each tube was then added 5 μl of 5× non-reducing loading buffer. The samples were vortexed and loaded on a 3-8% tris-Acetate gel and run for 75 min at 125 V constant current. The gel was transferred and blocked. The blot was then incubated overnight with anti-adiponectin antibody 1:500 in 3% BSA/TBS. The blot was washed and incubated with a secondary anti-mouse antibody for 1 hour. Densitometry was performed on a LICOR densitometer.

[2] = test system: LAD artery ligation ischemia/reperfusion; test: Myocardial ischemia/reperfusion (LAD artery ligation) in mice: infarct area, echocardiography; assay type: in vivo, mice (C57BL/6); design: IA (Ischemic Area): unit not given beside the values
Method: To analyze ischemic damage and treatment with cysteamine a study in mice (C57BL/6-Male-12 weeks, 25 g) that are either pre-treated or naïve to cysteamine bitartrate was performed as follows.
Pre-treated animals received intra-peritoneal cysteamine, 60 mg/kg twice (120 mg/kg/day) 2 hours before surgery for LAD artery ligation. Following a 60 minute ligation period the obstruction was removed and another dose of cysteamine was given immediately at the time of reperfusion and also twice daily injections for 4 days following reperfusion. A control group received the same volumes of control IV solution injected instead of cysteamine. Acceptable volumes of blood were collected at baseline, and at predetermined time points after the ischemic insult in order to determine levels of surrogate markers of inflammation and plasma cysteamine. […] Before sacrifice, the LAD was re-occluded and Evan's Blue was injected through JVC in order to delineate the non-ischemic area. […] Echocardiography provided ventricular volume data as well as wall function. Hemodynamic studies provided muscle contractility data (specifically systolic data).
So far seven mice were studied. Four received control solution and 3 received cysteamine. […] This is a reduction of 13%.

[3] = molecular target: T1, adiponectin multimers; test: Lean control / healthy subjects' serum incubated 1 hour with 90 μM cysteamine, adiponectin multimers; assay type: biochemical
Method: (§2) Total and multimeric adiponectin levels were measured in serum taken from: (1) subject with NAFLD collected at 0 and 24 wks of cysteamine therapy and again 16 wks after stopping therapy (i.e., 40 weeks); (2) pretreated 0-week subjects with NAFLD and adults without NAFLD at room temperature and at 37° C. and also after incubation with cysteamine 90 μM for 1 hour at 37° C.; and (3) pretreated 0-week subjects with NAFLD before and after incubation with cysteamine at varying concentrations (15, 30, 45, 60, 90, 120 μM) for 1 hour at 37° C. to establish dose-response profile.
(§3) Sodium dodecyl sulfate polyacrylamide gel electrophoresis (SDS-PAGE) was performed according to standard Laemmli's method. Sample buffer for non-reducing, non-heat denaturing conditions contained 3% SDS; 50 mmol/1 Tris-HCL, pH 6.8 and 20% glycerol. Proteins were separated using 3-8% Tris-Acetate Gels (Invitrogen, Carlsbad Calif.) with Tris-Acetate running buffer per manufacturer instructions. For immunoblotting, proteins were transferred to nitrocellulose membranes. Membranes were washed with Tween (Tris-buffered Saline, 0.1% […]) and incubated with monoclonal antibody (1:500 BD Transduction Laboratories, San Diego, Calif.). After washing with Tris-buffered saline with 0.1% Tween (4×5 min) membranes were incubated with L-COR secondary antibodies (LI-COR Biotechnology, Lincoln Nebr.) at 1:20,000. Adiponectin multimers were detected and quantified using the LICOR imager and software analysis program. Relative distribution of adiponectin multimers was determined by dividing band density by total density (cellular adiponectin) or by total adiponectin as determined by ELISA (Millipore, Billerica, Mass.). The percentage of adionectin multimer was then multiplied by the total adiponectin level to calculate absolute oligomer value.
as §1

[4] = molecular target: T1, adiponectin multimers; test: Pretreatment serum of subjects with NAFLD incubated 1 hour with cysteamine, adiponectin multimers; assay type: biochemical
Method: as §2, §3

[5] = lean control serum, 37° C. + 90 μM cysteamine, 1 hr
[6] = NAFLD serum (n=10), cysteamine 1 hour at 37° C. (45 μM in FIG. 13), P<0.0001

For `NCCS` [cysteamine, Cysteamine], the HMW adiponectin change ([1]; p=0.009) was “significantly decrease”, the LMW adiponectin change ([1]; p=0.05) was “significantly increase” and the “IA (Ischemic Area)” value ([2]; MEAN of 3 mice) was 7.99. The “IA/LV (cysteamine) (%)” value ([2]; MEAN of 3 mice, control 17.66%) was 8.12%, the “IA/AAR (cysteamine) (%)” value ([2]; MEAN of 3 mice, control 58.57%) was 33.24% and the “mean end diastolic volume (EDV), 24 h vs 72 h” value ([2]; cysteamine group, p=0.032) was “significant difference; also recorded: significant reduction”. The “relative amounts of ischemic damage compared with control groups” value ([2]; cysteamine treated vs control) was “about half”, the “IA/AAR (cysteamine) (%)” value ([2]; individual mice (raw data)) was 38.02% and 34.78% and 26.92% and the “IA/LV (cysteamine) (%)” value ([2]; individual mice (raw data)) was 12.66% and 6.24% and 5.47%. The “IA (Ischemic Area)” value ([2]; individual mice (raw data), cysteamine 60 mg/kg twice daily) was 9.37 and 11.14 and 3.46, the “IA/AAR ratio, cysteamine vs control group” value ([2]; p=0.004) was “significant reduction; also recorded: significant difference” and the “IA/LV ratio, cysteamine vs control group” value ([2]; p=0.008) was “significant reduction; also recorded: significant difference”. For the same molecule, the “percentage change in ESV between 24 h and 72 h, vs control group” value ([2]; p=0.039) was “significantly greater percentage reduction”, the “percentage change in EDV between 24 h and 72 h, vs control group” value ([2]; p=0.04) was “significantly greater percentage reduction; also recorded: significant difference” and the “mean percentage of total adiponectin comprised of LMW after incubation” value ([3]; healthy subjects, 90 μM cysteamine 1 hour, before 11.1%) was 18.0%. The “mean percentage of total adiponectin comprised of HMW after incubation” value ([3]; healthy subjects, 90 μM cysteamine 1 hour, before 42.9%) was 42.7%, the “mean percentage of total adiponectin comprised of MMW after incubation” value ([3]; healthy subjects, 90 μM cysteamine 1 hour, before 46.0%) was 39.3% and the “LMW adiponectin absolute level change” value [3, 5] was “no significant change”. The “MMW adiponectin absolute level change” value [3, 5] was “significant decrease”, the “LMW adiponectin mean percent change vs baseline” value ([3]; lean control/healthy serum, 90 μM cysteamine, 1 hr, P<0.005) was “increase; also recorded: significant percent change” and the “MMW adiponectin mean percent change vs baseline” value ([3]; lean control/healthy serum, 90 μM cysteamine, 1 hr, P<0.01) was “reduction; also recorded: significant percent change”. For the same molecule, the “HMW adiponectin level change” value ([3]; lean control/healthy serum, 37° C. + 90 μM cysteamine, 1 hr) was “unchanged; also recorded: no significant change”, the “HMW adiponectin level change” value ([4]; NAFLD pretreatment serum, cysteamine 1 hour at 37° C.) was “unchanged” and the “LMW adiponectin mean percent change vs pretreatment” value [4, 6] was “increase”. For the same molecule, the “MMW adiponectin mean percent change vs pretreatment” value [4, 6] was “significant reduction”, the “mean percentage of total adiponectin comprised of HMW after incubation” value ([4]; NAFLD serum, cysteamine 1 hour at 37° C., before 8.2%) was 8.6% and the “mean percentage of total adiponectin comprised of LMW after incubation” value ([4]; NAFLD serum, cysteamine 1 hour at 37° C., before 28.5%) was 36.7%. The “mean percentage of total adiponectin comprised of MMW after incubation” value ([4]; NAFLD serum, cysteamine 1 hour at 37° C., before 63.3%) was 54.7%.
